Data reported in US20130237478A1, “COMPOSITIONS AND METHODS FOR TREATMENT OF PERIPHERAL VASCULAR DISEASE” (TARIX PHARMACEUTICALS LTD., priority 2012, published 2013).
Entries after “also recorded” stand apart in the source; their conditions may differ. Positions of bridges follow the written chain, without caps; N, C: chain ends. No end group written: not given here.

Assays:
hind limb ischemia [1] = experiment: Blood flow by non contact laser Doppler in mouse hind limb ischemia model; type: in vivo, Balb/c mice
Source text: A stable hind limb ischemia model has been described previously and is generally characterized by uniform ischemic damage useful for examining the effect of various therapies (Goto, et al. Tokai J Exp Clin Med, 31(3):128 2006; Kang Y, et al. PLoS One. 2009; 4(1):e4275)). The hind limb ischemia model in mice used in this example involves two ligations of the proximal end of the femoral artery and its dissection between the two ligatures. The surgery causes obstruction of the blood flow and subsequently leads to severe ischemic damage (Goto, et al.; Kang, et al.). In this experiment, healthy adult female Balb/c mice were used. Hind limb ischemia was induced in mice using protocols previously described. Briefly, Balb/c female mice were maintained on a standard diet with water available ad libitum. Mice were anesthetized and an incision was made in the skin in the inguinal area. The femoral artery was ligated twice with 6-0 silk thread and transected between the ligatures after this the wound was closed with 4-0 silk thread and the mouse was allowed to recover. […]
Blood flow in legs from both sides of the animals was measured with a non contact laser Doppler before surgery and on days: 1, 7, 15, 21, 28, 35, 42 and 49 post operation. Blood flow measurements were expressed as the ratio of the flow in the ischemic limb to that in the normal limb.
(§1) The model used in this example is the same as for Example 1. Briefly, the hind limb ischemia model in mice used in this example involves two ligations of the proximal end of the femoral artery and its dissection between the two ligatures. The surgery causes obstruction of the blood flow and subsequently leads to severe ischemic damage (Goto, et al.; Kang, et al.). In this experiment, healthy adult female Balb/c mice were used. Hind limb ischemia was induced in mice using protocols previously described. Briefly, Balb/c female mice were maintained on a standard diet with water available ad libitum. Mice were anesthetized and an incision was made in the skin in the inguinal area. The femoral artery was ligated twice with 6-0 silk thread and transected between the ligatures after this the wound was closed with 4-0 silk thread and the mouse was allowed to recover.
An Angiotensin (1-7) polypeptide composition (PanCyte) and vehicle control (DPBS) were supplied as ready to use solutions and were stored at 4° C. until use. PanCyte was injected subcutaneously (500 μg/kg or 50 μg/kg) daily starting on day 1, 24 hours after inducing ischemia, until the end of the study. Negative control mice were injected subcutaneously with a vehicle.
The model and procedures used for this example is the same as for those in Examples 1 and 2, unless otherwise specified.
An Angiotensin (1-7) polypeptide composition (PanCyte, cyclized Asp^1-Arg^2-Val^3-Ser^4-Ile^5-His^6-Cys (SEQ ID NO:22)) and vehicle control (DPBS) were supplied as ready to use solutions and were stored at 4° C. until use. In groups 2F-5F, PanCyte was injected subcutaneously (1 μg/kg, 5 μg/kg, 25 μg/kg, 50 μg/kg) daily starting on day 1, 24 hours after inducing ischemia, until the end of the study. In group 6F, an osmotic Alzet pump was implanted subcutaneously and provided for continuous release of PanCyte over the duration of the study. Negative control mice were injected subcutaneously with vehicle (DPBS).

hind limb ischemia [2] = experiment: Capillary density in muscle sections, mouse hind limb ischemia model; type: in vivo, Balb/c mice; conditions: Example 2, 49 days after treatment beginning
Source text: as §1
An Angiotensin (1-7) polypeptide composition (PanCyte) and vehicle control (DPBS) were supplied as ready to use solutions and were stored at 4° C. until use. […]
Sections of muscle samples were taken from the same areas in 6-7 animals from each group. Capillaries were counted under a microscope in a total 12 random fields from different sections. Density was expressed as the mean number of capillaries per field of view. […]

[3] = tested on: Transient middle cerebral artery occlusion (tMCAO); experiment: Stepping test (forelimb akinesia) after tMCAO stroke; type: in vivo, rats; conditions: all experimental conditions (Table 22); by Day 28 post-surgery
Method: For the purposes of this example, Transient middle cerebral artery occlusion (tMCAO) procedure Day is defined as “Day 1” in this study. On the day of surgery anesthesia were induced with 4% isoflurane in a mixture of 70% N2O and 30% O2 and maintained with 1.5-2% isoflurane.
The tMCAO procedures were performed according to the method described R. Schmid-Elsaesser et al. Briefly, the right CCA (Common Carotid Artery) was exposed through a midline neck incision and carefully dissected free from surrounding nerves and fascia—from its bifurcation to the base of the skull. The occipital artery branches of the ECA (External Carotid Artery) were then isolated, and these branches were dissected and coagulated. The ECA was dissected further distally and coagulated along with the terminal lingual and maxillary artery branches, which was then divided. The ICA (Internal Carotid Artery) was isolated and carefully separated from the adjacent vagus nerve, and the pterygopalatine artery was ligated close to its origin with a 5-0 nylon suture (SMI, Belgium). Next, a 4-0 silk suture was tied loosely around the mobilized ECA stump, and a 4 cm length of 4-0 monofilament nylon suture (the tip of the suture was blunted by using a flame, and the suture was coated with polylysine, prior to insertion) was inserted through the proximal ECA into the ICA and thence into the circle of Willis, effectively occluding the MCA. The surgical wound was closed and the animals were returned to their cages to recover from anesthesia. […]
Animals were tested for forelimb akinesia in a stepping test (ST). The animal was held with its hind limbs fixed with one hand and the forelimb not to be monitored with the other, while the unrestrained fore-paw touches the table. The number of adjusting steps are counted while the animal is moved sideways along the table surface (85 cm in approximately five seconds), in the forehand & backhand direction for both forelimbs. […]

“cyclized Asp^1-Arg^2-Val^3-Ser^4-Ile^5-His^6-Cys (SEQ ID NO:22) (DRVSIHC; bridge 4-7; not fully specified; printed as Asp1-Arg2-Val3-Ser4-Ile5-His6-Cys7) [PanCyte, cyclic angiotensin peptide]” was tested, and the blood flow restored (hind limb ischemia [1]; Example 2, 50 μg/kg SC) was 85 % of its normal values, the “improvement in blood flow vs vehicle” value (hind limb ischemia [1]; Example 2, 50 μg/kg SC daily (3F), from day 21 up to day 49, p<0.05-0.001) was “statistically significant improvement in blood flow” and the blood flow restored (hind limb ischemia [1]; Example 2, 500 μg/kg SC) was 85 % of its normal values. For the same substance, the “improvement in blood flow vs vehicle” value (hind limb ischemia [1]; Example 2, 500 μg/kg SC daily (2F), from day 21 up to day 49, p<0.05-0.001) was “statistically significant improvement in blood flow”, the “improvement in blood flow vs vehicle” value (hind limb ischemia [1]; Example 3, 1 μg/kg SC daily (2F), days 42 and 49) was “blood flow improvement reached statistically significance” and the “improvement in blood flow vs vehicle” value (hind limb ischemia [1]; Example 3, 5 μg/kg SC daily (3F), days 42 and 49) was “blood flow improvement reached statistically significance”. The “improvement in blood flow vs vehicle” value (hind limb ischemia [1]; Example 3, 25 μg/kg SC daily (4F), days 42 and 49) was “blood flow improvement reached statistically significance”, the “improvement in blood flow vs vehicle” value (hind limb ischemia [1]; Example 3, 50 μg/kg SC daily injections (5F), day 35 up to day 49) was “significant improvement in blood flow” and the “improvement in blood flow vs vehicle” value (hind limb ischemia [1]; Example 3, 50 μg/kg continuous SC by Alzet pump (6F), day 14 up to day 49) was “Statistically significant improvement in blood flow; also recorded: particularly good and early blood perfusion restoration”. For the same substance, the blood flow restored (hind limb ischemia [1]; Example 3, SC 1-50 μg/kg, dose dependent manner) was “up to 84 % of its normal values”, the “capillary density (number of capillaries per field) vs control” value (hind limb ischemia [2]; 50 μg/kg SC daily) was “significantly increased the number of capillaries” and the “capillary density (number of capillaries per field) vs control” value (hind limb ischemia [2]; 500 μg/kg SC daily) was “significantly increased the number of capillaries”. For the same substance, the “stepping test performance vs vehicle” value [3] was “significantly improved the performance”.
